From patent US20060122180A1, “Therapeutic treatment” (priority 2002, published 2006)
Bridge positions count the residues as written; N and C are the ends. Ends that are not written are not given here.

Key:
Type in all cases: cell-based, mouse
Conditions in all cases: MC-3T3.E1/J1 cells, serum starved, stimulated for 3 minutes
[1] = test system: phospho-EGF Receptor (tyr 1173); assay: Western blot of EGF receptor phosphorylation in growth-factor-stimulated MC3T3.E1/J1 osteoblastic cells
Text: (§1) The MC3T3. E1/J1 cell line was isolated from a parental cell line, MC3T3-E1 (available from Invitrogen), which had in turn been derived from newborn C57BL/6 mouse calvaria. The MC3T3 E1/J1 line is described as an osteoblastic line. Care is taken in culture not to use a medium with a pH greater than 7.5 or to allow the cells to become confluent, as this causes a de-differentiation to form a fibroblastic phenotype. This reversion to a fibroblastic phenotype is a common feature of osteoblastic cell cultures.
(§2) MC3T3.E1/J1 cells were routinely maintained in complete media (α-modified minimum essential medium eagle+10% foetal calf serum+1% glutamine+10% M1). MC3T3.E1/J1 cells were plated at 1.7×10^4 cells/well (24 well plates) in complete media and incubated at 37° C. in 5% CO2 for 48 hours. Cells were washed twice in phosphate buffered saline and re-incubated for approximately 17 hours in serum starvation media (α-modified minimum essential medium eagle+1% glutamine).
(§3) Cells were then stimulated with growth factor (ET-1 or EGF) for 3 minutes. All media was then removed and the cells lysed in 2× laemli buffer. Following electrophoresis and western blotting, membranes were probed with phospho-p44/42 mitogen activated proteine kinase (MAPK)^(Thr 202/204), phosphor-AKT^(Ser 473) and phospho-EGF Receptor^(tyr 1173) specific antibodies.

[2] = test system: phosphor-AKT (Ser 473); assay: Western blot of AKT phosphorylation in growth-factor-stimulated MC3T3.E1/J1 osteoblastic cells
Text: as §1, §2, §3

[3] = test system: phospho-p44/42 mitogen activated proteine kinase (MAPK) (Thr 202/204); assay: Western blot of p44/42 MAPK phosphorylation in growth-factor-stimulated MC3T3.E1/J1 osteoblastic cells
Text: as §1, §2, §3

Row | Substance | EGFR tyr1173 phosphorylation [1] | AKT phosphorylation [2] | p44/42 MAPK phosphorylation [3]
1 | epidermal growth factor [EGF, growth factor used as stimulus] | stimulates | stimulates | stimulates
2 | endothelin-1 (CSCSSLMDKECVYFCHLDIIW; disulfide 1-15, 3-11; ends not checked; UniProt P05305 53-73, looked up) [ET-1, endogenous 21 amino acid peptide, endothelin isoform, used as growth factor stimulus] | – | – | stimulates
